# Experimental data published in ChEMBL document CHEMBL1130816, “Synthesis and antibacterial activity of O-methyl derivatives of azalide antibiotics: II. 6-OME derivatives via clarithromycin” (1998).
# Legend:
# Type in all cases: functional
# [1] = test system: Enterococcus faecium; experiment: Compound was evaluated for antibacterial activity against Enterococcus faecium (MB5516) sensitive strain
# [2] = test system: Bacillus subtilis; experiment: Compound was evaluated for antibacterial activity against Bacillus subtilis (MB5586) sensitive strain
# [3] = test system: Streptococcus pneumoniae; experiment: Compound was evaluated for antibacterial activity against Streptococcus pneumoniae (MB3957) sensitive strain
# [4] = test system: Staphylococcus aureus; experiment: Compound was evaluated for antibacterial activity against Staphylococcus aureus (MB2865) sensitive strain
# [5] = test system: Streptococcus pyogenes; experiment: Compound was evaluated for antibacterial activity against Streptococcus pyogenes (MB2874) sensitive strain
# [6] = test system: Enterococcus faecalis; experiment: Compound was evaluated for antibacterial activity against Enterococcus faecalis (MB5407) sensitive strain
SMILES,MIC [1] [µg/mL],MIC [2] [µg/mL],MIC [3] [µg/mL],MIC [4] [µg/mL],MIC [5] [µg/mL],MIC [6] [µg/mL]
CC[C@H]1OC(=O)[C@H](C)[C@@H](O[C@H]2C[C@@](C)(OC)[C@H](O)[C@H](C)O2)[C@H](C)[C@@H](O[C@@H]2O[C@H](C)C[C@H](N(C)C)[C@H]2O)[C@](C)(O)C[C@@H](C)N(C)C[C@H](C)[C@@H](O)[C@]1(C)O,0.125,0.3,< 0.06,0.3,< 0.06,2
CC[C@H]1OC(=O)[C@H](C)[C@@H](O[C@H]2C[C@@](C)(OC)[C@@H](OC)[C@@H](C)O2)[C@H](C)[C@@H](O[C@@H]2O[C@H](C)C[C@@H](N(C)C)[C@H]2O)[C@](C)(O)C[C@@H](C)N(C)C[C@H](C)[C@@H](OC)[C@]1(C)OC,8,2,4,32,0.5,32
CC[C@H]1OC(=O)[C@H](C)[C@@H](O[C@H]2C[C@@](C)(OC)[C@@H](O)[C@@H](C)O2)[C@H](C)[C@@H](O[C@@H]2O[C@H](C)C[C@@H](N(C)C)[C@H]2O)[C@](C)(OC)C[C@@H](C)N(C)C[C@H](C)[C@@H](O)[C@]1(C)O,1,1,0.5,2,0.06,16
CC[C@H]1OC(=O)[C@H](C)[C@@H](O[C@H]2C[C@@](C)(OC)[C@@H](O)[C@@H](C)O2)[C@H](C)[C@@H](O[C@@H]2O[C@H](C)C[C@@H](N(C)C)[C@H]2O)[C@](C)(OC)C[C@@H](C)CN(C)[C@H](C)[C@@H](O)[C@]1(C)O,1,1,0.5,2,0.12,8
CC[C@H]1OC(=O)[C@H](C)[C@@H](O[C@H]2C[C@@](C)(OC)[C@@H](OC)[C@@H](C)O2)[C@H](C)[C@@H](O[C@@H]2O[C@H](C)C[C@@H](N(C)C)[C@H]2O)[C@](C)(O)C[C@@H](C)N(C)C[C@H](C)[C@@H](O)[C@]1(C)O,2,4,0.5,8,0.03,8
CC[C@H]1OC(=O)[C@H](C)[C@@H](O[C@H]2C[C@@](C)(OC)[C@@H](OC)[C@@H](C)O2)[C@H](C)[C@@H](O[C@@H]2O[C@H](C)C[C@@H](N(C)C)[C@H]2O)[C@](C)(OC)C[C@@H](C)N(C)C[C@H](C)[C@@H](OC)[C@]1(C)OC,8,8,4,32,0.5,32
CC[C@H]1OC(=O)[C@H](C)[C@@H](O[C@H]2C[C@@](C)(OC)[C@@H](O)[C@H](C)O2)[C@H](C)[C@@H](O[C@@H]2O[C@H](C)C[C@H](N(C)C)[C@H]2O)[C@](C)(O)C[C@@H](C)CN(C)[C@H](C)[C@@H](O)[C@]1(C)O [AZITHROMYCIN],0.25,1,< 0.06,0.5,0.03,4
